Peptide text beside a SMILES is read from it.
Target: T1, ASIC1a F302A (Homo sapiens, UniProt P78348, F302A)
T1 construct: expressed in transfected cells; host or cells: Xenopus laevis oocytes injected with cRNA
T1 sequence (P78348 1-528 F302A): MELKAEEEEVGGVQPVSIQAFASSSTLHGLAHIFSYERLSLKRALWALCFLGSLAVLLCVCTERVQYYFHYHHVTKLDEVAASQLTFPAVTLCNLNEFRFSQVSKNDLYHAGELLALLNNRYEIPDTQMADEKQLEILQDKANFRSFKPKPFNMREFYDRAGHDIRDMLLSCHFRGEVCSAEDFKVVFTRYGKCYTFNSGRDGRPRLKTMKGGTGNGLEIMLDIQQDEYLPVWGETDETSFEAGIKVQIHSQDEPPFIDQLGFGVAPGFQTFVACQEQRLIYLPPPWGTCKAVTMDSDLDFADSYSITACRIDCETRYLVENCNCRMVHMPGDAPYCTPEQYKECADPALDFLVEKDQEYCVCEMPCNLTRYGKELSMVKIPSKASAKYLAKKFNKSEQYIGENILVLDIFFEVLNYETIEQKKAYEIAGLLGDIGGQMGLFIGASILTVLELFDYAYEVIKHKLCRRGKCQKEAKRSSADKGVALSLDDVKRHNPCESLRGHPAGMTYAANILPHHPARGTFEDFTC
Assay: Isust/Ipeak, TEVC in Xenopus oocytes
Type: cell-based
Settings: pH5, n = 8–10, mean ± SEM, read-out: EC50 of FRRFa-mediated sustained current induction
From the text: To scan the pocket and predicted entrance area with mutagenesis, we chose the residues with a potential to form hydrophobic (Ile312, Val187), aromatic (Phe 257, Phe301, Phe302) or electrostatic (Glu254, Asp303, Ser199, Asp253, Glu315) interactions with the peptide. For this analysis, we used mutation to Ala, and complemented the scan with mutation to Cys and subsequent chemical modification only for a selected residue. […] Phe302 is part of a loop connecting palm and thumb domains in the close neighbourhood of the thumb base. The observed increased Isust/Ipeak ratio of F302A (Fig. 4b,e) could simply be due to a better accessibility of the cavity of the putative RFa binding site in the thumb base, because Phe302 has a larger side chain than has Ala to which it was mutated. To test this hypothesis, we mutated Phe302 to Cys and exposed the mutant to the sulfhydryl reagent trimethylammonium-methyl methanethiosulfonate ([…]; 1 mM during 3 min) before the exposure to FRRFa. […]
Electrophysiological measurements were performed 1–2 days after cRNA injection. Ion currents were recorded using two-electrode voltage-clamp at a holding potential of −60 mV with a Dagan TEV-200 amplifier (Minneapolis, MN). […] The amplitude of the sustained current was measured in the last two seconds of the pH5 perfusion. […]

## N=C(N)NCCC[C@H](NC(=O)[C@H](CCCNC(=N)N)NC(=O)[C@@H](N)Cc1ccccc1)C(=O)N[C@@H](Cc1ccccc1)C(N)=O [FRRFa, Phe-Arg-Arg-Phe-amide] (H-FRRF-NH2)
  EC50: 11 ± 2 µM
